Measurements taken from patent publication US12606795B2 (Thankcome Biological Science and Technology (SuZhou) Co., …, priority 2023, dated 2026).

Assays:
[1] = tested on: Escherichia coli WP2 uvrA; conditions: Escherichia coli WP2A uvr −S9
Method: (§1) Bacterial strains used were Salmonella typhimurium TA97a (National Center for Type Culture Collection NTCC, 506391), S. typhimurium TA98 (NTCC, 506392), S. typhimurium TA100 (NTCC, 506395), S. typhimurium TA1535 (NTCC, 506396), and Escherichia coli WP2 uvrA (CHI Scientific, Co., Ltd., product number: 6-1705). To prepare a drug delivery formulation, distilled water was used as a carrier to prepare a suspension (100 mg/mL) for a test item. […] Therefore, bacteria in samples for the test item were removed by a mechanical means. In the process of mixing the formulation, any soluble components for the test item was dissolved in the carrier, and then, residual bacteria were removed by centrifugation (4° C.; 8000 rpm; 10 min). After centrifugation, liquid supernatant was removed and sterile filtration was performed with a 0.22 μm filter.
(§2) In the confirmatory mutation research, detection was performed at 15.81, 50, 158.1, 500, 1581, and 5000 μg/plate. The maximum concentration was recommended by current regulations and guidelines. […] The survival rate of test bacterial cells was checked through plate experiments in each test. If there is a dosage-related increase in the number of revertants, it is considered that the test item has mutagenicity, and/or a reproducible biology-related positive reaction targeting at least one dosage group occurs in at least one strain with or without metabolic activation.

[2] = tested on: S. typhimurium TA100; conditions: TA100 −S9
Method: as §1, §2

**Q.** Which “Number of revertant mutants per plate (mean ± standard deviation)” value [1] does the source give for `COS(C)(=O)=O` [Positive control 2, methyl methylsulfonate] here?
**A.** 613.40

**Q.** And the “Number of revertant mutants per plate (mean ± standard deviation)” value [2]?
**A.** 1347.00
